Source: article PMC9727182, “Identification of pharmacokinetic markers for safflower injection using a combination of system pharmacology, multicomponent pharmacokinetics, and quantitative proteomics study” (Frontiers in Pharmacology, 2022)
“And” between values parts separate entries of the source, which are not always exact repeats. Equal values may be shown once.

Assays:
[1] = tested on: H9c2 cardiomyocytes injured by H2O2; assay: Protection of cardiomyocytes injured by H2O2 (MTT); type: cell-based; conditions: for protection: preliminary test at maximum detected plasma concentration
Protocol: H9c2 cardiomyocytes obtained from Cell Bank of the Chinese Academy of Sciences (Shanghai, China) were cultured in DMEM (high glucose) supplemented with 1% P/S and 15% FBS in 5% CO2 at 37°C. The cells were collected with 0.25% trypsin, followed by re-seeding in 96-well multiplates with a density of 5×10^3 cells per well. The cell experiments were grouped as follows: normal group, model group (H2O2), administration groups and positive control groups (N-Acetyl-L-cysteine, NAC). […] After that, cells were incubated with 0.5 mg/ml of MTT for 4 h under standard condition, followed by addition of 150 µl DMSO into every well. The cell supernatants were finally removed and the optical density (OD) was recorded at 570 nm using a microplate reader (Thermo Fisher Scientific, United States). The protection rate of the compounds on H9c2 cardiomyocytes was calculated as (OD valueadministration group (or NAC group)-OD valuemodel group)/(OD valuenormal group-OD valuemodel group) ×100%.

[2] = Multicomponent pharmacokinetics in rat plasma after i.v. safflower injection (SI); conditions: for AUC(0-inf) / AUC(0-t) / Cmax / MRT inf / MRT last / Vd / clearance / half-life / concentration at 15 min: male, Sprague-Dawley, rat, plasma; for AUC(0-inf) / AUC(0-t) / Cmax / MRT inf / MRT last / Vd / clearance / half-life: iv; for detected mean maximum plasma concentration: rats, after administration of 4 ml/kg of SI; for concentration at 15 min: intravenous
Protocol: The animal experiments were approved by the Animal Care and Use Committee of the College of Animal Science (College of Bee Science), Fujian Agriculture and Forestry University (Approval Number: PZCASFAFU21012). 250 ± 20 g of male Sprague-Dawley (SD) rats were provided by Lab Animal Center in Fujian Medical University (Fuzhou, China).
Ten rats were divided into three groups (Low dose group, n = 4; medium and high groups, n = 3, respectively). […] For each rat, 2 ml of physiological saline was supplemented after 30 min sampling via intraperitoneal injection. The plasma samples were obtained by centrifugation at 3,000 rpm for 10 min and stored at −20°C until analysis.
Clear supernatant (5 μl) was injected into HPLC-MS for bioanalysis.
The sample was separated on a RD-C18 column (4.6 mm × 50 mm, 3.5 μm, Zhongpu Develop, China). The mobile phase incudes water with 0.1% acetic acid (A) and acetonitrile (B). […] The column temperature, flow rate and injection volume were set at 30°C, 0.5 ml/min and 5 μl, respectively.
Non-compartmental model was used to calculate the PK parameters by DAS 3.0 software (Chinese Pharmacologic Society, Beijing, China). A single-tailed t-test was carried out in the study.

[3] = Stability of 6 compounds of SI in rat plasma; conditions: for 10h in auto-sampler vials RE: extracted rat plasma; for 6h at room temperature RE / Freeze-thaw stability (three cycles) RE / Long-term stability (-80℃,15 days) RE: rat plasma
Text: The LC-MS method was validated by linearity, limits of detection (LOD), limits of quantification (LOQ), precision, accuracy, extraction recovery, matrix effect and stability of the 6 ingredients in rat plasma. Calibration curves were plotted using weighted linear regression of the peak area ratio of analyte to the IS against the corresponding nominal concentration of the analyte. LOD and LOQ were defined as the detectable concentration at which the ratio of signal to noise was more than 3 and 10, respectively. Intra- and inter-day accuracy and precision were assessed by detecting quality control (QC) samples using five replicates of rat samples at three concentration levels on one or three validation days, respectively. Accuracy and precision were expressed by relative error (RE) and relative standard deviation (RSD), respectively. The extraction recovery and matrix effect of the 6 components at above-mentioned three concentration levels were determined. Stability was assessed under the condition of placing un-treated plasma samples at room temperature for 6 h, and extracted plasma samples in auto-sampler for 10 h, as well as placing plasma samples within freeze-thaw three cycles and at −80 °C for 15 days.

[4] = Stability in diluted SI at room temperature; conditions: analyzed at 0, 2, 4, 8, 12, 24, and 48 h
[5] = 1 h after administration (2 ml/kg of SI), preliminary test
[6] = behind 15 min after i.v. low dose administration (1 ml/kg of SI)

SMILES	detection in rat plasma [2, 5]	detection in rat plasma [2, 6]	AUC(0-inf) ([2]; 4 ml/kg) [µg·h/mL]	AUC(0-t) ([2]; 4 ml/kg) [µg·h/mL]	Cmax ([2]; 4 ml/kg) [µg/mL]	MRT inf ([2]; 4 ml/kg) [h]	MRT last ([2]; 4 ml/kg) [h]	Vd ([2]; 4 ml/kg) [L/kg]	clearance ([2]; 4 ml/kg) [L/h/kg]	half-life ([2]; 4 ml/kg) [h]	detected mean maximum plasma concentration [2]	10h in auto-sampler vials RE ([3]; spiked 40 ng/mL) [%]	10h in auto-sampler vials RE ([3]; spiked 1000 ng/mL) [%]	10h in auto-sampler vials RE ([3]; spiked 10000 ng/mL) [%]	6h at room temperature RE ([3]; spiked 40 ng/mL) [%]	Freeze-thaw stability (three cycles) RE ([3]; spiked 40 ng/mL) [%]	Long-term stability (-80℃,15 days) RE ([3]; spiked 40 ng/mL) [%]	6h at room temperature RE ([3]; spiked 1000 ng/mL) [%]	Stability RSD [4] [%]	concentration at 15 min ([2]; 2 ml/kg) [µg/mL]	also measured
CC(=O)N[C@@H](CS)C(=O)O [NAC, N-Acetyl-L-cysteine, reference compound]	–	–	–	–	–	–	–	–	–	–	–	–	–	–	–	–	–	–	–	–	protection rate ([1]; 1 mM, positive drug): 6.45%
C[C@@H]1O[C@@H](OC[C@H]2O[C@@H](Oc3c(-c4ccc(O)c(O)c4)oc4cc(O)cc(O)c4c3=O)[C@H](O)[C@@H](O)[C@@H]2O)[C@H](O)[C@H](O)[C@H]1O [RU, rutin]	can be detected	can’t be detected	0.0151 ± 0.00223	0.0124 ± 0.00137	0.0393 ± 0.00153	0.36 ± 0.06	0.22 ± 0.03	0.3 ± 0.02	0.86	0.24 ± 0.04	0.039 μg/mL and 0.06 μM	6.25	2.90	-5.96	-4.00	-4.50	7.00	-2.48	2.31	–	protection ([1]; 0.06 μM): absence of protection; Freeze-thaw stability (three cycles) RE ([3]; spiked 1000 ng/mL): -3.06%; Long-term stability (-80℃,15 days) RE ([3]; spiked 1000 ng/mL): 3.36%; 6h at room temperature RE ([3]; spiked 10000 ng/mL): -3.71%; Freeze-thaw stability (three cycles) RE ([3]; spiked 10000 ng/mL): 0.09%; Long-term stability (-80℃,15 days) RE ([3]; spiked 10000 ng/mL): -2.80%
O=C(O)[C@H]1O[C@@H](Oc2cc3oc(-c4ccc(O)cc4)cc(=O)c3c(O)c2O)[C@H](O)[C@@H](O)[C@@H]1O [SCU, scutellarin]	can be detected	can’t be detected	0.358 ± 0.034	0.306 ± 0.0125	0.327 ± 0.06	2.96 ± 1.49	1.57 ± 0.68	0.03 ± 0.01	0.01	2.84 ± 1.19	0.327 μg/mL and 0.7 μM	10.63	0.30	-1.48	-6.50	0.00	6.00	-2.90	4.42	–	half-life [2]: ≥ 2.58 h; AUC(0-inf) ([2]; 2 ml/kg): 0.105 ± 0.0315 µg·h/mL; AUC(0-t) ([2]; 2 ml/kg): 0.0898 ± 0.021 µg·h/mL; Cmax ([2]; 2 ml/kg): 0.162 ± 0.0174 µg/mL; MRT inf ([2]; 2 ml/kg): 2.9 ± 2.42 h; MRT last ([2]; 2 ml/kg): 1.46 ± 0.64 h; Vd ([2]; 2 ml/kg): 0.05 ± 0.02 L/kg; clearance ([2]; 2 ml/kg): 0.01 L/h/kg; half-life ([2]; 2 ml/kg): 2.58 ± 1.84 h; protection ([1]; 0.7 μM): absence of protection; Freeze-thaw stability (three cycles) RE ([3]; spiked 1000 ng/mL): -4.00%; Long-term stability (-80℃,15 days) RE ([3]; spiked 1000 ng/mL): 2.80%; 6h at room temperature RE ([3]; spiked 10000 ng/mL): -2.06%; Freeze-thaw stability (three cycles) RE ([3]; spiked 10000 ng/mL): -5.21%; Long-term stability (-80℃,15 days) RE ([3]; spiked 10000 ng/mL): -0.81%
Nc1ncnc2c1ncn2[C@@H]1O[C@H](CO)[C@@H](O)[C@H]1O [adenosine]	–	–	–	–	–	–	–	–	–	–	–	–	–	–	–	–	–	–	2.74	< 0.0005	–
Nc1ccn([C@@H]2O[C@H](CO)[C@@H](O)[C@H]2O)c(=O)n1 [cytidine]	–	–	–	–	–	–	–	–	–	–	–	–	–	–	–	–	–	–	1.85	< 0.0005	–
Nc1nc2c(ncn2[C@@H]2O[C@H](CO)[C@@H](O)[C@H]2O)c(=O)[nH]1 [guanosine]	–	–	–	–	–	–	–	–	–	–	–	–	–	–	–	–	–	–	–	< 0.0005	–
